Data reported in patent US20260355192A1, “PROPHYLACTIC OR THERAPEUTIC AGENT FOR PERIOSTIN-MEDIATED DISEASE AND PRURITUS ASSOCIATED THEREWITH” (SAGA UNIVERSITY, priority 2022, published 2026).

Tests used:
[1] = tested on: scratching behaviors in FADS mice; experiment: Scratching behaviors in FADS mice upon repeated percutaneous administration of CP4715; assay type: in vivo, mouse (FADS, Nestin-cre/Ikk2ff); details: 30 μL of 26.85 mM solution externally applied once a day for 28 days to facial rash lesions; FIG. 7
Text: Nestin-cre transgenic mice were crossed with IKK2^ff mice to prepare Nestin-cre/Ikk2^ff mice specifically lacking IKK2 in their facial skin fibroblasts (Nunomura S, et al. J Invest Dermatol. 139:1274-1283, 2019). These mice inevitably develop atopic dermatitis-like rash limited to the face and intense itchy symptoms, and were therefore designated as Facial Atopic Dermatitis with Scratching (FADS) mice. […] For evaluation of the prophylactic or therapeutic agent of the present invention, FADS mice at 3 to 4 weeks of age or older were used because of showing spontaneous scratching behaviors. It should be noted that in this Example section, the above compound of formula (I) (more particularly “CP4715”) was used as the prophylactic or therapeutic agent of the present invention.
FADS mice were acclimated for 20 minutes to the environment of a recording cage, and then recorded with a video camera. The recorded videos were replayed, and scratching behaviors were counted assuming that hind paw scratching to the face and the subsequent movement of toe licking or paw lowering to the ground were regarded as one cycle of scratching behavior.
CP4715 was dissolved in a diluent (5% DMSO/15% N-methyl-2-pyrrolidone/80% ethanol) to prepare a 26.85 mM solution. […] Before administration and on Days 3, 7, 14, 21 and 28 of administration, the number of scratchings during 60 minutes was counted for evaluation.

[2] = tested on: neurons in the posterior horn surface of the spinal cord; experiment: In vivo extracellular recording from the posterior horn surface of the spinal cord in FADS mice (spontaneous firing); design: species or system mouse (FADS); details: 53.7 μmol/kg i.p.; FIG. 3
Method: In Vivo Extracellular Recording from the Posterior Horn Surface of the Spinal Cord in FADS Mice
FADS mice were administered intraperitoneally with 1.5 g/kg of urethane and anesthetized, followed by dorsal lumbar laminectomy. The first to sixth lumbar vertebrae were exposed, and each mouse was set on a stereotaxic apparatus. Under a microscope, the dural, arachnoidal and pial membranes were removed, and the spinal cord surface was warmed at 36±1 °C, followed by perfusion at 15 to 20 mL/min with an artificial cerebrospinal fluid (composition: NaCl (117 mM), KCl (3.6 mM), CaCl2) (2.5 mM), MgCl2 (1.2 mM), NaH2PO4 (1.2 mM), glucose (11 mM), NaHCO3 (25 mM)) saturated with 95% 02 to 5% CO2. Into the exposed spinal cord, a tungsten electrode (tip diameter: […], tip impedance: 9 to 12 MΩ) was inserted (latero-medial), and records were obtained from neurons in the posterior horn surface of the spinal cord.
CP4715 was dissolved at 89.5 mM in a diluent (physiological saline containing 50% DMSO and 89.5 mM hydrochloric acid), from which an amount corresponding to 53.7 μmol/kg per mouse was then taken and diluted with 0.3 mL of physiological saline, and then administered intraperitoneally (i.p.). 0.3 mL of physiological saline containing an equal amount of the diluent as calculated based on the body weight was administered as a control. When recorded from the spinal cord posterior horn of the FADS mice, neurons with spontaneous firing could be recorded. When the above control solution was first administered intraperitoneally, there was little change in the frequency of spontaneous firing during 30 minutes after administration.

`COc1cc(C(=O)NC[C@H](NS(=O)(=O)c2ccccc2)C(=O)O)ccc1N1CCC(NC2=NCCCN2)CC1` [CP4715, (S)-3-(3-methoxy-4-(4-((1,4,5,6-tetrahydropyrimidin-2-yl)amino)piperidin-1-yl)benzamido)-2-(phenylsulfonamido)propanoic acid] was tested, and the “time-dependent enhancement of scratching behaviors” value [1] was “suppressed”, the “time after administration at which firing returned to the initial frequency” value [2] was 60 min and the “time after administration at which the frequency of firing started to decrease” value [2] was 20 min. The “time after administration at which the frequency of firing was most strongly suppressed” value [2] was 40 min.
